Entries after “also recorded” stand apart in the source; their conditions may differ.
Columns and labels:
[1] = test system: 9L rat glioblastoma cells; assay: Cell viability assay (MTS) in 9L rat glioblastoma cells; format: cell-based
Experimental: (§1) T98G glioblastoma cells were obtained from ATCC and cultured at 37° C. 10% CO2 in Dulbecco's Modified Eagles Medium supplemented with 10% newborn calf serum. 9L rat glioblastoma cells were obtained from Carol Cruse (University of Colorado) and cultured at 37° C. in 10% CO2 in Dulbecco's Modified Eagles Medium supplemented with 10% fetal Calf serum. The T98G-LHCmjun clone (termed T98G mutant jun or T98G-mjun), as well as control empty vector modified clone (termed T98GLHCX) were obtained from Dr. Dan Mercola (Sidney Kimmel Cancer Center) and were cultured in the same way as were T98G cells except that 100 μg/ml hygromycin was added to the culture medium. The 98G-mjun is stably modified to express a dominant negative mutant of c-jun (the mutant was obtained by site-directed mutagenesis by M. Karin and colleagues and is described by Smeal et al. (1991). Mutant jun has ser→ala substitutions at positions 63 and 73, two sites of DNA damage-induced phosphorylation, and can therefore not be phosphorylated at these sites. 9LpCEPp53 (or 9LpCEP4, control) were cultured in the same way at 9L cells except that 50 μg/ml hygromycin was added to the medium.
Rat 9L glioblastoma cells express p53 mutated at codon 277 (J. Neuroonal. 19:259-268, 1994.) 9LpCEPp53 (or 9LpCEP4) were obtained by transducing 5×10^5 9L cells with 15 μG of pCEPp53 (or pCEP4) using Lipofectamine (GIBCO/BRL, Gaithersberg, Md.) following the manufacturer's instructions. Clones were selected in 50 μg/ml hygromycin and characterized for wild-type p53 expression by immunoprecipitation (immunoprecipitation procedure described in: Gjerset et al., Molec. Carcinog. 5:190-198, 1992) using the 1801 anti-p53 antibody specific for human p53 (p-Ab-2, Oncogene Science, Uniondale, N.Y.), and by the PG13 functional assay described above. pCEPp53 was derived by inserting the human wild-type p53 cDNA into the multicloning site of pCEP4.
(§2) Cells were infected when they were at 80% confluence with either 100 pfu per cell overnight in DMEM containing 2% heat-inactivated FBS (for T98G and clones derived from T98G) or at 50 pfu per cell for 2 hours (9L cells). The efficiency of infection was determined by staining a sample of the β-gal virus-infected cells at 48 hrs post-infection as described (Dannenerg and Saga, 1981).
(§3) Viability assays were performed in 96 wells plates 6-7 days after plating. Cells were plated at a starting cell number per well of 1000. Triplicate or quadruplicate wells were set up for each assay point. […] For cisplatin treatment, triplicate or quadruplicate wells were exposed for 1 hour to various concentrations of cisplatin (Platinol™), and then incubated in the absence of cisplatin for 7 days, during which time control (untreated) wells were in exponential phase growth. Viable cell number was based on the bioconversion of the tetrazolium compound, MTS, into formazan (Promega, Celltiter96™Aqeous), as determined by absorbance at […] using an ELISA reader. For 3-aminobenzamide (ABZ) treatment, triplicate or quadruplicate wells were treated with either 5 mM ABZ or 10 mM ABX. Fresh ABZ was added every two days and viability was scored as described above at 6 days. Assays involving the synthetic retinoid SR11220 were performed in the presence of charcoal-treated fetal bovine serum. Medium was replaced every two days with medium containing fresh retinoid.

[2] = test system: T47D breast cancer cells; assay: Cell viability assay (MTS) in T47D breast cancer cells; format: cell-based; conditions: for cell viability: one hour cisplatin, various concentrations, 7 days post-infection; for viability: 7 days
Experimental: Cells were infected when they were at 80% confluence with either 100 pfu per cell overnight in DMEM containing 2% heat-inactivated FBS (for T98G and clones derived from T98G) or at 50 pfu per cell for 2 hours (9L cells).
as §3

[3] = test system: T98G glioblastoma cells; assay: Cell viability assay (MTS) in T98G glioblastoma cells; format: cell-based; conditions: for cell viability: 7 days post-treatment
Experimental: as §1, §2, §3

[4] = test system: T98G parental cells; assay: PCR stop assay for DNA damage (2.7 Kb HPRT fragment) in T98G parental cells; format: cell-based, human
Experimental: (§4) This assay has been described (Oshita and Saijo, 1994; Jannerwein and Eastman, 1991). The assay is based on the principle that every DNA lesion, including adducts produced by cisplatin, can potentially block the progression of the Taq polymerase and decrease the yield of a given PCR™ product. […] Furthermore, when whole cells are incubated with varying levels of cisplatin, the degree of inhibition of amplification of a specific PCR™ product from DNA purified from these cells, correlates closely with the amount of DNA damage (level of DNA platination) as measured by atomic adsorption (Jannerwein and Eastman, 1991). The following primers (used by Oshita and Saijo, 1994) which amplify a 2.7 Kb fragment of the human hypoxanthine phosphoribosyl transferase (HPRTase) gene were used:
(§5) As an internal control for the efficiency of the PCR™ reaction, a nested 5′ primer which amplifies a 150 bp fragment of the same gene was used:
At the cisplatin levels used to treat the cells, damage to the smaller fragment is undetectable. […] In some experiments, 3-aminobenzamide (10 mM), an inhibitor of ADP ribosylation and DNA repair (see Din et al., 1992) was added during the 6 hour recovery period. […] DNA was washed with 70% EtOH to remove salt, followed by 100% EtOH dried briefly, and resuspended at 1 mg/ml in sterile H2O. Quantitative PCR™ was performed in 50 μl aliquots using 0.5 μg DNA, 50 pmol of forward primer for 2.7 Kb fragment, 50 pmol reverse primer, and 5 pmol of forward primer for the 150 base fragment, 50 mM KCL, 10 nmM Tris pH 8.3, 1.5 mM MgCl2, […], 0.5 μl Tac polymerasse (Perkin Elmer), and 1 pmol radioactively end-labeled reverse primer (labeled with y-^32P-dATP). Amplification conditions were as follows: 1 cycle: 94° C., 1′30; 25 cycles: 94° (1 min)-57° (1 min)-70° (2′30″); 1 cycle:94° (1 min)-57° (1 min)-70° (7′). […] The gel was vacuum-dried for two hours onto filter paper and the PCR™-amplified 2.7 Kb and 150 bp bands were quantitated using an Ambis4000 Radioanalytic Imaging system (Ambis, Inc., San Diego, Calif.).

[5] = test system: T98G-mutant jun cells; assay: PCR stop assay for DNA damage (2.7 Kb HPRT fragment) in T98G-mutant jun cells; format: cell-based, human; conditions: varying concentrations
Experimental: as §4, §5
At the cisplatin levels used to treat the cells, damage to the smaller fragment is undetectable. […] In some experiments, 3-aminobenzamide (10 mM), an inhibitor of ADP ribosylation and DNA repair (see Din et al., 1992) was added during the 6 hour recovery period. […] The gel was vacuum-dried for two hours onto filter paper and the PCR™-amplified 2.7 Kb and 150 bp bands were quantitated using an Ambis4000 Radioanalytic Imaging system (Ambis, Inc., San Diego, Calif.).

With N.N.[Cl][Pt][Cl] [cisplatin] the viability ([1]; 9L cells infected with p53 adenovirus, compared to βgal adenovirus, 50 μM cisplatin one day later, measured seven days after cisplatin) was “significant decrease in viability”, the cell viability ([1]; 9L cells stably modified with wild-type p53 vector pCEPp53, compared to control vector pCEP4, one hour cisplatin, various concentrations, 7 days post-treatment) was “significantly reduced the viability” and the cell viability ([2]; T47D cells infected with wild-type p53 adenovirus, two days post-infection) was “decreased with increasing doses of cisplatin”. The viability ([2]; T47D cells infected with βgal adenovirus control, 10^−8 M SR11220, 10 μM cisplatin or combination) was “not reduced significantly”, the cell viability ([2]; control T47D cells infected with βgal-adenovirus) was “significantly more refractory” and the viability ([2]; p53 adenovirus infected T47D cells, 10 μM cisplatin, 1 hour exposure) was “an even greater effect on the reduction in viability”. For the same compound, the “cell growth / viability” value ([3]; T98G cells infected with wild-type p53 adenovirus, one hour cisplatin, various concentrations, 7 days post-infection) was “growth suppression in a dose dependent manner”, the growth rate ([3]; T98G cells infected with βgal adenovirus, increasing levels of cisplatin, 7 days post-infection) was “slightly reduce growth rate” and the cell viability ([3]; T98G cells stably modified with wild-type p53 vector pLp53RNL, one hour cisplatin, increasing doses) was “reduced in a dose dependent manner”. The cell viability ([3]; control T98G cells stably modified with vector only, pLNRL, one hour cisplatin) was “more resistant”, the “DNA damage (percentage of control PCR signal)” value ([4]; six hours after 1.5 hour cisplatin treatment, no 3-aminobenzamide) was “partially reduced; also recorded: no significant DNA damage remained” and the “DNA damage (percentage of control PCR signal)” value ([4]; zero hours after 1.5 hour treatment with varying concentrations of cisplatin) was “considerable DNA damage”. For the same compound, the “repair of DNA damage” value ([5]; six hours after 1.5 hours cisplatin) was “not able to be repaired” and the “DNA damage (percentage of control PCR signal)” value ([5]; zero hour after 1.5 hours cisplatin) was “high levels of DNA damage”.

For NC(=O)c1cccc(N)c1 [3-aminobenzamide], the viability ([1]; 9L cells stably expressing human wild-type p53 (pCEPp53), 5 mM 3-aminobenzamide for 6 days) was “low viability”, the viability ([1]; 9L cells stably expressing human wild-type p53 (pCEPp53), 10 mM 3-aminobenzamide for 6 days) was “even lower viability” and the growth inhibition ([1]; 9L cells stably expressing only control vector pCEP4, both 5 mM and 10 mM 3-aminobenzamide, 6 days) was “resistant to growth inhibition”. The “DNA damage (percentage of control PCR signal)” value ([4]; 10 mM 3-aminobenzamide, six hours post treatment with varying concentrations of cisplatin) was “significant DNA damage”.
